From patent US20040254224A1, “Medicaments” (priority 2001, published 2004)

Target: HM74 (Homo sapiens, UniProt P49019)
Conditions: membranes from HM74-expressing HEK293T cells, co-expressed with Go1α
Method: HEK293T cells (HEK293 cells stably expressing the SV40 large T-antigen) were maintained in DMEM containing 10% (v/v) foetal calf serum and 2 mM glutamine. Cells were seeded in 60 mm culture dishes and grown to 60-80% confluency (18-24 h) prior to transfection with pCDNA3 containing the relevant DNA species using Lipofectamine reagent. For transfection, 3 μg of DNA was mixed with 10 μl of Lipofectamine in 0.2 ml of Opti-MEM (Life Technologies Inc.) and was incubated at room temperature for 30 min prior to the addition of 1.6 ml of Opti-MEM. Cells were exposed to the Lipofectamine/DNA mixture for 5 h and 2 ml of 20% (v/v) newborn calf serum in DMEM was then added. Cells were harvested 48-72 h after transfection.
Plasma membrane-containing P2 particulate fractions were prepared from cell pastes frozen at −80° C. after harvest. All procedures were carried out at 4° C. Cell pellets were resuspended in 1 ml of 10 mM Tris-HCl and 0.1 mM EDTA, pH 7.5 (buffer A) and by homogenisation for 20 s with a polytron homogeniser followed by passage (5 times) through a 25-guage needle. Cell lysates were centrifuged at 1,000 g for 10 min in a microcentrige to pellet the nuclei and unbroken cells and P2 particulate fractions were recovered by microcentrifugation at 16,000 g for 30 min. P2 particulate fractions were resuspended in buffer A and stored at −80° C. until required.

Chain of HM74 (P49019 whole entry): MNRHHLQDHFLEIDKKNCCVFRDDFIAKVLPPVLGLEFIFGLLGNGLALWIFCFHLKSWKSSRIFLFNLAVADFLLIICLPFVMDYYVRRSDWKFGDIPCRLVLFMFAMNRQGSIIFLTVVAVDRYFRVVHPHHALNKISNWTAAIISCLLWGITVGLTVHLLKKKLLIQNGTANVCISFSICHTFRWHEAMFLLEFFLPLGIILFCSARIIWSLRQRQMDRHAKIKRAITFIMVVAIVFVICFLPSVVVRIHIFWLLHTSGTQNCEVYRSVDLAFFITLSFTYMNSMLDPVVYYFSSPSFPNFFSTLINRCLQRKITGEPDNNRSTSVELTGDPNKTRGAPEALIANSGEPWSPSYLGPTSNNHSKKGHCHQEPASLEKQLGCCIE

Q: `O=C(O)CNC(=O)c1cccnc1` [nicotinuric acid] was tested. Which “stimulation of [35S]GTPγS binding” value did it give?
A: not found to alter basal
